Source: BindingDB's records for doi:10.1007/s10822-022-00478-x (Roche Innovation Center Basel, F. Hoffmann-La Roche Ltd., 2022)

Molecular target: cAMP and cAMP-inhibited cGMP 3',5'-cyclic phosphodiesterase 10A (Homo sapiens, UniProt Q9Y233)
Assay: PDE10A assay
Method: Compounds were diluted in 20 mM HEPES/NaOH (pH 7.5), 10 mM MgCl2 and 0.05 mg/ml bovine serum albumin. A fixed amount of 2 ng/well human PDE10A enzyme was added and incubated at room temperature for 15 min under agitation. The reaction was started by the addition of the substrate cocktail [3H]cGMP (Perkin Elmer NET337001MC, S.A. 13.5 Ci/mmol) / cGMP at a final concentration of 50 nM and incubated for an additional 15 min. The reaction was stopped by the addition of 0.5 mg/well of Y-Si SPA beads. The plates were shaken for 1 h, followed by a brief centrifugation (170 g for 1 min). The radioactivity bound to the beads was estimated using a TopCount (Perkin-Elmer). For the determination of IC50 values, a four parameters logistics equation was used. pIC50 is defined as − log10(IC50).

| SMILES | IC50 |
| --- | --- |
| Cc1c(Cl)cc(C(F)(F)F)c2nc(/C=C/c3nc(N4CCCC4)nn3C)nn12 [Roche-Dataset for PDE10A, Compound 154] | 2.74 nM |
| Cc1c(Cl)cc(C(F)(F)F)c2nc(CCc3nc(N4CCCC4)nn3C)nn12 [Roche-Dataset for PDE10A, Compound 157] | 1.1 nM |
| COc1cccc(-c2nc3cc(NC(=O)c4c(C(=O)N5CCC5)cnn4C)ccn3n2)n1 [Roche-Dataset for PDE10A, Compound 160] | 1.09 nM |
| Cn1ncc(C(=O)N2CCC2)c1C(=O)N[C@@H]1CCn2cc(-c3cccc(Cl)c3)nc2C1 [Roche-Dataset for PDE10A, Compound 161] | 6.59 nM |
| CCc1nc(C)c(C(=O)Nc2cc3nc(-c4ccccc4)[nH]c3cc2C(=O)NCC2(CO)COC2)o1 [Roche-Dataset for PDE10A, Compound 163] | 7.27 nM |
| Cn1ncc(C(=O)N2CC(F)C2)c1C(=O)Nc1ccn2nc(-c3ccccc3)nc2c1 [Roche-Dataset for PDE10A, Compound 165] | 0.36 nM |
| Cc1nnc2c(C(=O)NCCc3nc(-c4ccccc4)cn3C)cccn12 [Roche-Dataset for PDE10A, Compound 166] | 95 nM |
| CN(C)c1cc(C(=O)Nc2ccn3nc(-c4ccccc4)nc3c2)cc(Cl)n1 [Roche-Dataset for PDE10A, Compound 167] | 131 nM |
| Cn1cc(-c2ccccc2)nc1CCc1nc2ccccc2c(=O)[nH]1 [Roche-Dataset for PDE10A, Compound 170] | 60 nM |
| CCc1cc(C(F)(F)F)c2nc(CCc3nc(N4CCCC4)nn3C)nn2c1C [Roche-Dataset for PDE10A, Compound 171] | 3.37 nM |
| Cn1ncc(-c2ccccc2)c1C(=O)Nc1ccn2nc(-c3ccccc3)nc2c1 [Roche-Dataset for PDE10A, Compound 172] | 131 nM |
| Cc1c(-c2ccccc2)nc2n1CC[C@@H](NC(=O)c1c(C(=O)N3CCC3)cnn1C)C2 [Roche-Dataset for PDE10A, Compound 173] | 11 nM |
| Cn1ncc(C(=O)N2CCC2)c1C(=O)Nc1ccc2sc(-c3ccccc3)nc2c1 [Roche-Dataset for PDE10A, Compound 174] | 0.77 nM |
| CCOC(=O)c1cnn(C)c1C(=O)Nc1ccn2nc(-c3cccc(F)c3)nc2c1 [Roche-Dataset for PDE10A, Compound 175] | 46 nM |
| O=C1c2ccccc2C(=O)N1CCc1csc(-c2ccccc2)n1 [Roche-Dataset for PDE10A, Compound 177] | 2520 nM |
| CCc1nc(C)c(C(=O)Nc2cc3nc(-c4ccccc4)[nH]c3cc2C(=O)NCC2(C)COC2)o1 [Roche-Dataset for PDE10A, Compound 178] | 3.53 nM |
| Cn1cc(-c2ccccc2)nc1/C=C/c1ccc2ccccc2n1 [Roche-Dataset for PDE10A, Compound 180] | 271 nM |
| O=C(NCCCc1noc(-c2ccccc2)n1)c1nc(C2CC2)cnc1Nc1cncnc1 [Roche-Dataset for PDE10A, Compound 181] | 495 nM |
| Cn1cc(-c2ccccc2)nc1CCNC(=O)c1cccn2cnnc12 [Roche-Dataset for PDE10A, Compound 182] | 392 nM |
| Cn1cnc(C(=O)N2CCC2)c1C(=O)Nc1ccn2nc(-c3ccccc3)nc2c1 [Roche-Dataset for PDE10A, Compound 183] | 21 nM |
| CNC(=O)c1cn2cc(-c3ccccc3)nc2cc1NC(=O)c1nc(C2CC2)ccc1Nc1cncnc1 [Roche-Dataset for PDE10A, Compound 184] | 0.22 nM |
| COc1cc(-c2nc3cc(NC(=O)c4c(C(=O)N5CCC5)cnn4C)ccn3n2)ccn1 [Roche-Dataset for PDE10A, Compound 185] | 4.73 nM |
| Cc1c(Cl)cc(C(F)F)c2nc(CCc3nc(N4CCCC4)nn3C)nn12 [Roche-Dataset for PDE10A, Compound 187] | 1.67 nM |
| CN(CCF)C(=O)c1cnn(C)c1C(=O)N[C@@H]1CCn2cc(-c3ccccc3)nc2C1 [Roche-Dataset for PDE10A, Compound 190] | 205 nM |
| Cn1cc(-c2ccccc2)nc1COc1ncc(C2CC2)nc1C(=O)NCC1CC1 [Roche-Dataset for PDE10A, Compound 191] | 221 nM |
| CN(C(=O)c1cnn(C)c1C(=O)N[C@@H]1CCn2cc(-c3ccccc3OC(F)F)nc2C1)C1CC1 [Roche-Dataset for PDE10A, Compound 192] | 7.98 nM |
| Cn1ncc(C(=O)N2C[C@@H]3C[C@H]2CO3)c1C(=O)Nc1ccn2nc(N3CCOCC3)nc2c1 [Roche-Dataset for PDE10A, Compound 193] | 128 nM |
| CN(C)C(=O)c1cnn(C)c1C(=O)Nc1ccc2[nH]c(-c3ccccc3)nc2c1 [Roche-Dataset for PDE10A, Compound 195] | 0.36 nM |

The remaining lines, values ahead:

| IC50 | SMILES |
| --- | --- |
| 680 nM | COc1c(C)cnc(CCc2nc(-c3ccccc3)cn2C)c1C [Roche-Dataset for PDE10A, Compound 197] |
| 15 nM | COc1nc(OCc2nc(-c3ccccc3)cn2C)nc2ccc(Cl)cc12 [Roche-Dataset for PDE10A, Compound 198] |
| 86 nM | CNc1cc(C(=O)Nc2ccn3nc(-c4ccccc4)nc3c2)cc(Cl)n1 [Roche-Dataset for PDE10A, Compound 199] |
| 25 nM | CC(C)c1nnc2c(C(=O)NCCc3nc(-c4ccccc4)cn3C)cccn12 [Roche-Dataset for PDE10A, Compound 201] |
| 3.08 nM | Cc1oc(-c2ccccc2)nc1CCNC(=O)c1nc(C2CC2)cnc1Nc1cncnc1 [Roche-Dataset for PDE10A, Compound 202] |
| 22 nM | CCN(CC)C(=O)c1cnn(C)c1C(=O)Nc1ccn2nc(N3CCOCC3)nc2c1 [Roche-Dataset for PDE10A, Compound 203] |
| 0.78 nM | Cn1ncc(C(=O)N2CCC2)c1C(=O)Nc1cc2nc(-c3ccccc3)nn2cc1F [Roche-Dataset for PDE10A, Compound 204] |
| 0.54 nM | Cc1c(Cl)cc(OC(F)F)c2nc(CCc3nc(N4CCCC4)n(C)n3)nn12 [Roche-Dataset for PDE10A, Compound 206] |
| 1.1 nM | CN(C(=O)c1cnn(C)c1C(=O)Nc1ccn2nc(N3CCOCC3)nc2c1)C1CC1 [Roche-Dataset for PDE10A, Compound 207] |
| 232 nM | CC(C)c1ncc(Nc2ccon2)c(C(=O)N[C@@H]2CCN(c3ccc(Cl)cn3)C2)n1 [Roche-Dataset for PDE10A, Compound 212] |
| 20 nM | Cc1cnn2c(C)c(CCc3nc(N4CCCC4)nn3C)nc2c1C [Roche-Dataset for PDE10A, Compound 216] |
| 51 nM | Cn1ncc2c1C(=O)N(c1ccn3nc(-c4cccc(F)c4)nc3c1)C2=O [Roche-Dataset for PDE10A, Compound 217] |
| 6.9 nM | Cn1ncc(C(=O)N2CCC2)c1C(=O)Nc1ccn2nc(-c3ccnc(Cl)c3)nc2c1 [Roche-Dataset for PDE10A, Compound 218] |
| 11 nM | Cc1cncc(-c2nc3cc(NC(=O)c4c(C(=O)N5CCC5)cnn4C)ccn3n2)c1 [Roche-Dataset for PDE10A, Compound 219] |
| 12 nM | CCOC(=O)c1cnn(C)c1C(=O)Nc1ccn2nc(-c3ccccc3OC)nc2c1 [Roche-Dataset for PDE10A, Compound 220] |
| 30 nM | CN(C)C(=O)c1cnn(C)c1C(=O)N[C@@H]1CCn2c(nc(-c3ccccc3)c2Cl)C1 [Roche-Dataset for PDE10A, Compound 221] |

| IC50 | SMILES |
| --- | --- |
| 1.76 nM | Cn1ncc(C(=O)N2CCOCC2)c1C(=O)Nc1cn(-c2ccc3ccccc3n2)cn1 [Roche-Dataset for PDE10A, Compound 222] |
| 0.69 nM | Cc1c(Cl)cc(OC(C)C)c2nc(CCc3nc(N4CCCC4)nn3C)nn12 [Roche-Dataset for PDE10A, Compound 223] |
| 6.96 nM | Cn1ncc(C(=O)N2CCC2)c1C(=O)N[C@@H]1CCn2c(nc(-c3ccccc3)c2Cl)C1 [Roche-Dataset for PDE10A, Compound 225] |
| 263 nM | COc1cccc(-c2cn3c(n2)C[C@H](NC(=O)c2c(C(=O)N(C)C)cnn2C)CC3)c1 [Roche-Dataset for PDE10A, Compound 230] |
| 1.91 nM | Cc1cc(-c2nc3cc(NC(=O)c4c(C(=O)N5CCC5)cnn4C)ccn3n2)ccn1 [Roche-Dataset for PDE10A, Compound 234] |
| 2.61 nM | Cn1ncc(C(=O)N2CCC2)c1C(=O)Nc1cc2nc(-c3ccccc3)nn2cn1 [Roche-Dataset for PDE10A, Compound 236] |
| 2420 nM | Cn1cc(-c2ccccc2)nc1CCc1cccc(-c2ccccn2)n1 [Roche-Dataset for PDE10A, Compound 237] |
| 748 nM | CNC(=O)c1cc2[nH]c(-c3ccccc3)nc2cc1NC(=O)c1oc(CO)nc1C [Roche-Dataset for PDE10A, Compound 238] |
| 14 nM | COCc1cnn(C)c1C(=O)Nc1ccn2nc(-c3ccccc3)nc2c1 [Roche-Dataset for PDE10A, Compound 239] |
| 11 nM | Cn1cc(-c2ccccc2)nc1COc1nc(N2CCOCC2)c2ccccc2n1 [Roche-Dataset for PDE10A, Compound 240] |
| 34 nM | Cc1cccc(-c2cn3c(n2)C[C@H](NC(=O)c2c(C(=O)N(C)C)cnn2C)CC3)c1 [Roche-Dataset for PDE10A, Compound 241] |
| 15 nM | CCN(C)C(=O)c1cnn(C)c1C(=O)N[C@@H]1CCn2cc(-c3ccccc3)nc2C1 [Roche-Dataset for PDE10A, Compound 242] |
| 11 nM | Nc1ccc(C2CC2)nc1C(=O)Nc1cc2nc(-c3ccccc3)[nH]c2cc1C(=O)NC1COC1 [Roche-Dataset for PDE10A, Compound 243] |
| 987 nM | COc1c(C)cnc(/C=C/c2nc(-c3ccccc3)cn2C)c1C [Roche-Dataset for PDE10A, Compound 245] |
| 44 nM | CN(C(=O)c1cnn(C)c1C(=O)N[C@@H]1CCn2cc(-c3ccccc3)nc2C1)C1COC1 [Roche-Dataset for PDE10A, Compound 248] |
